Data reported in patent US9315438B2, “Optically pure benzyl-4-chlorophenyl-C-glucoside derivative” (XUANZHU PHARMA CO., LTD., priority 2014, dated 2016).

Legend:
[1] = molecular target: human SGLT-1 (Homo sapiens (Human), UniProt P13866); experiment: In-vitro [14C]-AMG uptake inhibition assay in CHO cells stably expressing human SGLT-1; type: cell-based; settings: human SGLT-1 in CHO cells
Procedure: In the in-vitro assay for the pharmacological activities of the present compounds, the human SGLT-2 and SGLT-1 sequences were transfected to Chinese hamster ovary cells to express stably. By measuring inhibition of the sodium dependent adsorption of [^14C]-labeled […]-D-glucopyranoside (AMG) into the cells, the half-inhibition concentration IC50 was determined. Buffer A (KRH—Na^+): 120 mM NaCl, 4.7 mM KCl, 1.2 mM MgCl2, 2.2 mM CaCl2, 10 mM HEPES (PH 7.4 with 1 mM Tris). Buffer A− (KRH—NMG): 120 mM NMG, 4.7 mM KCl, 1.2 mM MgCl2, 2.2 mM CaCl2, 10 mM HEPES (PH 7.4 with 1 mM Tris). Buffer D: 120 mM NaCl, 4.7 mM KCl, 1.2 mM MgCl2, 2.2 mM CaCl2, 10 mM HEPES, 0.5 mM phlorizin (PH 7.4 with 1 mM Tris). Assay method: Human SGLT-2 and SGLT-1 sequences were stably expressed in the CHO cells. The cell culture was conducted in a 96-well plate for 12 hr. The plate was washed with KRH—Na+(Buffer A) or KRH-NMG (Buffer A−) buffering solution for three times, 2004/well. Then the plate was added with a buffering solution containing Buffer A or Buffer A− plus [^14C]-AMG (10 μCi/mL), 100 μL/well. The cell culture was conducted at 37° C. for 1 hr. Then, 100 μL of an ice pre-cooled buffering solution (Buffer D) was added to terminate the assay. The plate was washed for five times. Then an ice pre-cooled lytic buffering solution (100 mM NaOH solution) was added, 20 μL/well, and the centrifugation at 600 rpm was conducted for 5 mins. Then Microscint 40 solution was added, 80 μl/well, and the centrifugation at 600 rpm was conducted for 5 mins. Finally, the radioactivity of [^14C]-AMG was detected with MicroBeta Trilux (purchased from PerkinElmer Co. Ltd.) according to the scintillation counting method, and the half-inhibition concentration IC50 was calculated.

[2] = molecular target: human SGLT-2 (Homo sapiens (Human), UniProt P31639); experiment: In-vitro [14C]-AMG uptake inhibition assay in CHO cells stably expressing human SGLT-2; type: cell-based; settings: for Selectivity: SGLT-1 IC50 / SGLT-2 IC50
Procedure: In the in-vitro assay for the pharmacological activities of the present compounds, the human SGLT-2 and SGLT-1 sequences were transfected to Chinese hamster ovary cells to express stably. By measuring inhibition of the sodium dependent adsorption of [^14C]-labeled […]-D-glucopyranoside (AMG) into the cells, the half-inhibition concentration IC50 was determined.
Buffer A (KRH—Na^+): 120 mM NaCl, 4.7 mM KCl, 1.2 mM MgCl2, 2.2 mM CaCl2, 10 mM HEPES (PH 7.4 with 1 mM Tris).
Buffer A− (KRH—NMG): 120 mM NMG, 4.7 mM KCl, 1.2 mM MgCl2, 2.2 mM CaCl2, 10 mM HEPES (PH 7.4 with 1 mM Tris).
Buffer D: 120 mM NaCl, 4.7 mM KCl, 1.2 mM MgCl2, 2.2 mM CaCl2, 10 mM HEPES, 0.5 mM phlorizin (PH 7.4 with 1 mM Tris).
Assay method: Human SGLT-2 and SGLT-1 sequences were stably expressed in the CHO cells. The cell culture was conducted in a 96-well plate for 12 hr. The plate was washed with KRH—Na+(Buffer A) or KRH-NMG (Buffer A−) buffering solution for three times, 2004/well. Then the plate was added with a buffering solution containing Buffer A or Buffer A− plus [^14C]-AMG (10 μCi/mL), 100 μL/well. The cell culture was conducted at 37° C. for 1 hr. Then, 100 μL of an ice pre-cooled buffering solution (Buffer D) was added to terminate the assay. The plate was washed for five times. Then an ice pre-cooled lytic buffering solution (100 mM NaOH solution) was added, 20 μL/well, and the centrifugation at 600 rpm was conducted for 5 mins. Then Microscint 40 solution was added, 80 μl/well, and the centrifugation at 600 rpm was conducted for 5 mins. Finally, the radioactivity of [^14C]-AMG was detected with MicroBeta Trilux (purchased from PerkinElmer Co. Ltd.) according to the scintillation counting method, and the half-inhibition concentration IC50 was calculated.

[3] = Rat in-vivo pharmacokinetic assay (PO); settings: male SD rats, PO 10 mg/kg, plasma
Procedure: Assay animals: 6-8 weeks aged male SD rats (purchased from Vital River Laboratories), 3 rats per compound, weighing 200-240 g.
Solvent: 0.5% MC (methyl cellulose) solution+0.1% SDS (sodium dodecyl sulfate).
Intragastric administration (PO): See Table 2
Blood collection: each of 200 μL whole blood were collected at 0.17 hr, 0.5 hr, 1 hr, 2 hr, 4 hr, 6 hr, 8 hr, 24 hr, 30 hr, 48 hr, 54 hr and 72 hr. The collected blood samples were centrifuged at 4° C. at 8000 rpm in a low temperature high-speed centrifuge (5415R, Eppendorf) for 6 mins to separate the blood plasma. The separated plasma was preserved at −80° C. in a refrigerator.
20 μL of the plasma was carefully taken out, to which was added 600 µL of an internal standard MTBE (methyl tert-butyl ether) solution (containing internal standard dapagliflozin 25 ng/ml). The plasma was subjected to a vortex at 1500 rpm for 10 mins, and then centrifuged at 12000 rpm for 5 mins. 4004 of the supernatant was taken and blow-dried with nitrogen gas. The dried substance was redissolved with 2004 of a redissolving solution (acetonitrile:water=7:3). The solution was subjected to a vortex for 10 mins, and analyzed with LC-MS/MS (API4000, Applied Biosystems).

human SGLT-1, sequence (P13866 whole entry): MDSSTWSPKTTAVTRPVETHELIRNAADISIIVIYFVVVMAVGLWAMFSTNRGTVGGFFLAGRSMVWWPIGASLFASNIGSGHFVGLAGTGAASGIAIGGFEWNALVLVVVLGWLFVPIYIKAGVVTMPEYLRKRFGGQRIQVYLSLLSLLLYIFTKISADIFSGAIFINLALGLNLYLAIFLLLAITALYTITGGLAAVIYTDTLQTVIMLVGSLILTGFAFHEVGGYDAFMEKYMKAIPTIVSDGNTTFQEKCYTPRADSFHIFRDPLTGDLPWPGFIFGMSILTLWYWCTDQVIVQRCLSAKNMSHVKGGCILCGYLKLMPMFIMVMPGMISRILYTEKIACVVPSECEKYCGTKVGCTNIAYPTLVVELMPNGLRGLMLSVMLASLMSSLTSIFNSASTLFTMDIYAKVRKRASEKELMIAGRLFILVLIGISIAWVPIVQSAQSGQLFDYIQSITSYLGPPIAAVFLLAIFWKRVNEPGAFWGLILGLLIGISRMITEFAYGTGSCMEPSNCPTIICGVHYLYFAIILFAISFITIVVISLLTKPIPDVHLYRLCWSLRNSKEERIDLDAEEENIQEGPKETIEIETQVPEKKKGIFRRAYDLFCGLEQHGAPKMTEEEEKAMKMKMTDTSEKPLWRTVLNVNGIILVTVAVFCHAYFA
human SGLT-2, sequence (P31639 whole entry): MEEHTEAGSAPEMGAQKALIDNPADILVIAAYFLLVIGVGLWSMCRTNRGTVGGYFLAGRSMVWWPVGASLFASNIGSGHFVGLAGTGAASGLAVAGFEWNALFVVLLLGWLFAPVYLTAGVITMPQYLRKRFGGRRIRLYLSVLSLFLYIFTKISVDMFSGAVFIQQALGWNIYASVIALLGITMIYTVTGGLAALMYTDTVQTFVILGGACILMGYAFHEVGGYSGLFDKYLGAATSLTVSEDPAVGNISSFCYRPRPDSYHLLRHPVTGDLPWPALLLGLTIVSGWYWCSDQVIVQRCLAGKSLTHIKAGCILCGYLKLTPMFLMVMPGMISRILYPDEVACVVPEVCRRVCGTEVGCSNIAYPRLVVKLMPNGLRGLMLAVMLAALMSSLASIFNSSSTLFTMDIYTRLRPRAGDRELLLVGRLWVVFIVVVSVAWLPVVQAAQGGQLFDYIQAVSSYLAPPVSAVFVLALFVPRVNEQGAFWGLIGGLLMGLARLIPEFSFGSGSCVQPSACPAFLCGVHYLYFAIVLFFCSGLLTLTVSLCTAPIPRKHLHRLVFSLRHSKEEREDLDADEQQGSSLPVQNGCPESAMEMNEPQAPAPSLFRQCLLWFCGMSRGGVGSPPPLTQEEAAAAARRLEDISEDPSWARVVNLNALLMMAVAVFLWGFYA

Structure (SMILES)	IC50 [1] [µM]	IC50 ([2]; human SGLT-2 in CHO cells, [14C]-AMG uptake) [nM]	AUC(0-inf) [3] [ng·h/mL]	AUC(0-t) [3] [ng·h/mL]	Cmax [3] [ng/mL]	Tmax [3] [h]	half-life [3] [min]	Selectivity [2]
OC[C@H]1O[C@@H](c2ccc(Cl)c(Cc3ccc(O[C@H]4C[C@@H]5C[C@@H]5C4)cc3)c2)[C@H](O)[C@@H](O)[C@@H]1O [Compound represented by formula (II), (2S,3R,4R,5S,6R)-2-(3-(4-(((1R,3s,5S)-bicyclo[3.1.0]hexan-3-yl)oxy)benzyl)-4-chlorophenyl)-6-(hydroxymethyl)tetrahydro-2H-pyran-3,4,5-triol]	17.2	2.5	92100	92100	6380	1	539	
OC[C@H]1O[C@@H](c2ccc(Cl)c(Cc3ccc(O[C@@H]4C[C@@H]5C[C@@H]5C4)cc3)c2)[C@H](O)[C@@H](O)[C@@H]1O [Compound represented by formula (III), (2S,3R,4R,5S,6R)-2-(3-(4-(((1R,3r,5S)-bicyclo[3.1.0]hexan-3-yl)oxy)benzyl)-4-chlorophenyl)-6-(hydroxymethyl)tetrahydro-2H-pyran-3,4,5-triol]	3.08							392.77
OC[C@H]1O[C@H](c2ccc(Cl)c(Cc3ccc(O[C@H]4C[C@@H]5C[C@@H]5C4)cc3)c2)[C@H](O)[C@@H](O)[C@@H]1O [Compound represented by formula (IV), (2R,3R,4R,5S,6R)-2-(3-(4-(((1R,3s,5S)-bicyclo[3.1.0]hexan-3-yl)oxy)benzyl)-4-chlorophenyl)-6-(hydroxymethyl)tetrahydro-2H-pyran-3,4,5-triol]	111							100.34
OC[C@H]1O[C@H](c2ccc(Cl)c(Cc3ccc(O[C@@H]4C[C@@H]5C[C@@H]5C4)cc3)c2)[C@H](O)[C@@H](O)[C@@H]1O [Compound represented by formula (V), (2R,3R,4R,5S,6R)-2-(3-(4-(((1R,3r,5S)-bicyclo[3.1.0]hexan-3-yl)oxy)benzyl)-4-chlorophenyl)-6-(hydroxymethyl)tetrahydro-2H-pyran-3,4,5-triol]	75.5							267.77
